# Experimental data reported in patent US5830869A, “Thiadiazole amide MMP inhibitors” (priority 1997, dated 1998).
# Target: Stromelysin (Homo sapiens, UniProt P08254)
# Experiment: Stromelysin inhibition, in vitro particle concentration fluorescence assay (TABLE 1, MMP Inhibition Constants)
# Type: biochemical
# Conditions: fluorescein/biotin substrate, MMP buffer pH 7.5, room temperature, 15 min preincubation with enzyme, 1-3 h with substrate
# Description: Inhibitory activity is evaluated in one or more of the MMP enzymes (stromelysin, gelatinase, and collagenase) in vitro using particle concentration fluorescence assay. An inhibitor binds to MMP enzymes which prevents the degradation of a substrate by stromelysin, gelatinase, or collagenase. The substrate has attached to it a fluorescein and a biotin moiety. The intact substrate then binds to an avidin-coated particle via the biotin moiety. Once the particle is washed and dried, a fluorescent signal is generated since the fluorescent group is attached to the particle. Without an inhibitor present, the substrate is degraded by MMP enzymes and the fluorescein group is removed, therefore, no fluorescent signal can be detected. Testing compounds are dissolved in DMSO to the desired concentration, then the solutions are diluted to 1:5 with MMP buffer (50 mM Tris-HCl, pH 7.5; 150 mM NaCl; 0.02% NaN3). Serial two-fold dilutions of each compound are prepared. A concentrated, activated enzyme solution is transferred into each plate of the testing compounds, and the mixture is incubated at room temperature for 15 minutes. Thawed MMP substrate is then added into all plates, and the plates are incubated in the dark for 1-3 hours at room temperature. At this point, the substrate mixture is mixed with 0.1% avidin-coated polystyrene particles. After 15 minutes, the fluorescence values are measured following filtration and washing of the beads. Ki values are then calculated.
# Stromelysin, sequence (P08254 100-477): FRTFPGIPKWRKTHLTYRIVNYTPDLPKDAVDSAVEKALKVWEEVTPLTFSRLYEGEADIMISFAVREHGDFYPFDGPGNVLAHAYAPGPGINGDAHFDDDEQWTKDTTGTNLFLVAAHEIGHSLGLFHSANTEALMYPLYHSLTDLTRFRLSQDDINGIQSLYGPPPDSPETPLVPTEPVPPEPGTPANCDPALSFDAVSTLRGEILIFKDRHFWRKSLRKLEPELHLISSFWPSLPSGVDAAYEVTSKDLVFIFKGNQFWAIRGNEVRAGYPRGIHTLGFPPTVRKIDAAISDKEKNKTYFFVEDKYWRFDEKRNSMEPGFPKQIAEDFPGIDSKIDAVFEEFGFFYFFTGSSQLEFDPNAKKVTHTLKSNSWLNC
row,Ki [nM],Compound
1,1910,"C=CC[C@H](C(=O)Nc1n[nH]c(=S)s1)[C@@H](CC(C)C)NC(=O)OCc1ccccc1 (relative stereo) [Example 55, (R*,S*)-[2-[[(4,5-dihydro-5-thioxo-1,3,4-thiadiazol-2-yl)amino]carbonyl]-1-(2-methylpropyl)-4-pentenyl]carbamic acid phenylmethyl ester]"
2,1700,"CC(C)C[C@@H](NC(=O)OCc1ccccc1)[C@H](Cc1ccccc1)C(=O)Nc1n[nH]c(=S)s1 (relative stereo) [Example 56, (R*,S*)-[1-[2-[(4,5-dihydro-5-thioxo-1,3,4-thiadiazol-2-yl)amino]-oxo-1(phenylmethyl)ethyl]-3-methylbutyl]carbamic acid phenylmethyl ester]"
3,10300,"O=C(Nc1n[nH]c(=S)s1)[C@@H]1CC[C@H](C(=O)N(Cc2ccccc2)OCc2ccccc2)C1 (relative stereo) [Example 60, cis-N'-(4,5-dihydro-5-thioxo-1,3,4-thiadiazol-2-yl)-N-(phenylmethoxy)-N-(phenylmethyl)-1,3-cyclopentane dicarboxamide]"
4,1210,"O=C(NC(C(=O)Nc1n[nH]c(=S)s1)c1ccccc1)OCc1ccccc1 (stereo not drawn) [Example 1, [2-[(4,5-dihydro-5-thioxo-1,3,4-thiadiazol-2-yl)amino]-2-oxo-1-phenylethyl]carbamic acid, phenylmethyl ester]"
5,13900,"O=C(N[C@@H](CCc1ccccc1)C(=O)Nc1n[nH]c(=S)s1)OCc1ccccc1 [Example 2, (S)-[1-[[(4,5-dihydro-5-thioxo-1,3,4-thiadiazol-2-yl)amino]carbonyl]-3-phenylpropyl]carbamic acid phenylmethyl ester]"
6,1240,"CC[C@H](C)[C@H](NC(=O)OCc1ccccc1)C(=O)Nc1n[nH]c(=S)s1 [Example 3, [S-(R*,R*)]-[1-[[(4,5-dihydro-5-thioxo-1,3,4-thiadiazol-2-yl)amino]carbonyl]-2-methylbutyl[carbamic acid phenylmethyl ester]"
7,950,"CC[C@H](C)[C@H](NC(=O)OCC1c2ccccc2-c2ccccc21)C(=O)Nc1n[nH]c(=S)s1 [Example 4, [S-(R*,R*)]-[1-[[(4,5-dihydro-5-thioxo-1,3,4-thiadiazol-2-yl)amino]carbonyl]-2-methylbutyl]carbamic acid 9H-fluoren-9-yl-methyl ester]"
8,2420,"CCCCC(NC(=O)OCc1ccccc1)C(=O)Nc1n[nH]c(=S)s1 (stereo not drawn) [Example 5, [1-[[(4,5-dihydro-5-thioxo-1,3,4-thiadiazol-2-yl)amino]carbonyl]pentyl]carbamic acid phenylmethyl ester]"
9,530,"CC(C)(C)[C@H](NC(=O)OCc1ccccc1)C(=O)Nc1n[nH]c(=S)s1 [Example 6, (S)-[1-[[(4,5-dihydro-5-thioxo-1,3,4-thiadiazol-2-yl)amino]carbonyl]-2,2-dimethylpropyl]carbamic acid phenylmethyl ester]"
10,2310,"CCC[C@H](NC(=O)OCc1ccccc1)C(=O)Nc1n[nH]c(=S)s1 [Example 7, (S)-[1-[[(4,5-dihydro-5-thioxo-1,3,4-thiadiazol-2-yl)amino]carbonyl]butyl]carbamic acid phenylmethyl ester]"
11,8060,"O=C(NC(COCc1ccccc1)C(=O)Nc1n[nH]c(=S)s1)OCc1ccccc1 (stereo not drawn) [Example 8, [2-[(4,5-dihydro-5-thioxo-1,3,4-thiadiazol-2-yl)amino]-2-oxo-1-[(phenylmethoxy)methyl]ethyl]carbamic acid phenylmethyl ester]"
12,9450,"O=C(NC(CSCc1ccccc1)C(=O)Nc1n[nH]c(=S)s1)OCc1ccccc1 (stereo not drawn) [Example 9, [2-[(4,5-dihydro-5-thioxo-1,3,4-thiadiazol-2-yl)amino]-2-oxo-1-[[(phenylmethyl)thio]methyl]ethyl]carbamic acid phenylmethyl ester]"
13,6320,"CCCCCCCC(NC(=O)OCc1ccccc1)C(=O)Nc1n[nH]c(=S)s1 (stereo not drawn) [Example 10, [1-[[(4,5-dihydro-5-thioxo-1,3,4-thiadiazol-2-yl)amino]carbonyl]octyl]carbamic acid phenylmethyl ester]"
14,6100,O=C(N[C@@H](CC1CCCCC1)C(=O)Nc1n[nH]c(=S)s1)OCc1ccccc1 [Example 11]
15,840,"O=C(N[C@H](C(=O)Nc1n[nH]c(=S)s1)C1CCCCC1)OCc1ccccc1 [Example 12, (S)-[1-(cyclohexyl)-2-[(4,5-dihydro-5-thioxo-1,3,4-thiadiazol-2-yl)amino]-2-oxoethyl]carbamic acid phenylmethyl ester]"
16,1800,"CC(=O)NC(C(=O)Nc1n[nH]c(=S)s1)c1ccccc1 (stereo not drawn) [Example 13, α-(acetylamino)-N-(4,5-dihydro-5-thioxo-1,3,4-thiadiazol-2-yl)-benzeneacetamide]"
17,640,"O=C(CCc1ccccc1)NC(C(=O)Nc1n[nH]c(=S)s1)c1ccccc1 (stereo not drawn) [Example 14, N-[2-[(4,5-dihydro-5-thioxo-1,3,4-thiadiazol-2-yl)amino]-2-oxo-1-phenylethyl]benzenepropanamide]"
18,1380,"O=C(CCCCc1ccccc1)NC(C(=O)Nc1n[nH]c(=S)s1)c1ccccc1 (stereo not drawn) [Example 15, N-[2-[(4,5-dihydro-5-thioxo-1,3,4-thiadiazol-2-yl)amino]-2-oxo-1-phenylethyl]benzenepentanamide]"
19,380,"O=C(COCc1ccccc1)NC(C(=O)Nc1n[nH]c(=S)s1)c1ccccc1 (stereo not drawn) [Example 16, N-(4,5-dihydro-5-thioxo-1,3,4-thiadiazol-2-yl)-α-[[(phenylmethoxy)acetyl]amino]benzeneacetamide]"
20,1770,"CC(=O)NCSC(C)(C)C(NC(=O)OCc1ccccc1)C(=O)Nc1n[nH]c(=S)s1 (stereo not drawn) [Example 17, (2-(((acetylamino)methyl)thio)-1-(((4,5-dihydro-5--thioxo-1,3,4-thiadiazol-2-yl)amino)carbonyl)-2-methylpropyl)carbamic acid phenylmethyl ester]"
21,1800,"CC(C)(C)OC(=O)NC(C(=O)Nc1n[nH]c(=S)s1)C(C)(C)/C=C\c1ccccc1 (stereo not drawn) [Example 18, (Z)-(1-(((4,5-dihydro-5-thioxo-1,3,4-thiadiazol-2-yl)amino)carbonyl)-2,2-dimethyl-4-phenyl-3-butenyl)carbamic acid 1,1-dimethylethyl ester]"
22,6200,"CC(C)(C)OC(=O)NC(C(=O)Nc1n[nH]c(=S)s1)C(C)(C)CCc1ccccc1 (stereo not drawn) [Example 19, (1-(((4,5-dihydro-5-thioxo-1,3,4-thiadiazol-2-yl)amino)carbonyl)-2,2-dimethyl-4-phenylbutyl)carbamic acid 1,1-dimethylethyl ester]"
23,3060,"CC(C)(C)OC(=O)NC(C(=O)Nc1n[nH]c(=S)s1)C(C)(C)/C=C/Cc1ccccc1 (stereo not drawn) [Example 20, (E)-(1-(((4,5-dihydro-5-thioxo-1,3,4-thiadiazol-2-yl)amino)carbonyl)-2,2-dimethyl-5-phenyl-3-pentenyl)carbamic acid 1,1-dimethylethyl ester]"
24,2720,"CC(C)(C)OC(=O)NC(C(=O)Nc1n[nH]c(=S)s1)C(C)(C)CCCc1ccccc1 (stereo not drawn) [Example 21, (1-(((4,5-dihydro-5-thioxo-1,3,4-thiadiazol-2-yl)amino)carbonyl)-2,2-dimethyl-5-phenylpentyl)carbamic acid 1,1-dimethylethyl ester]"
25,3510,"C=CC(C)(C)C(NC(=O)OC(C)(C)C)C(=O)Nc1n[nH]c(=S)s1 (stereo not drawn) [Example 22, (1-(((4,5-dihydro-5-thioxo-1,3,4-thiadiazol-2-yl)amino)carbonyl)-2,2-dimethyl-3-butenyl)carbamic acid 1,1-dimethylethyl ester]"
26,2140,"CCC(C)(C)C(NC(=O)OC(C)(C)C)C(=O)Nc1n[nH]c(=S)s1 (stereo not drawn) [Example 23, (1-(((4,5-dihydro-5-thioxo-1,3,4-thiadiazol-2-yl)amino)carbonyl)-2,2-dimethylbutyl)carbamic acid 1,1-dimethylethyl ester]"
27,1980,"CC(C)(C)OC(=O)NC(C(=O)Nc1n[nH]c(=S)s1)c1ccccc1 (stereo not drawn) [Example 24, [2-[(4,5-dihydro-5-thioxo-1,3,4-thiadiazol-2-yl)amino]-2-oxo-1-phenylethyl]carbamic acid 1,1-dimethylethyl ester]"
28,2480,"CC(C)(C)OC(=O)N[C@@H](Cc1ccc(NC(=O)OCc2ccccc2)cc1)C(=O)Nc1n[nH]c(=S)s1 [Example 25, (S)-[4-[3-[(4,5-dihydro-5-thioxo-1,3,4-thiadiazol-2-yl)amino]-2-[[(1,1-dimethylethoxy)carbonyl]amino]-3-oxopropyl]phenyl]carbamic acid phenylmethyl ester]"
29,240,"CC(C)(C)[C@H](NC(=O)CCc1ccccc1)C(=O)Nc1n[nH]c(=S)s1 [Example 26, (S)-N-[1-[[(4,5-dihydro-5-thioxo-1,3,4-thiadiazol-2-yl)amino]carbonyl]-2,2-dimethylpropyl]benzenpropanamide]"
30,910,"CC(C)(C)[C@H](NC(=O)CCc1c(F)c(F)c(F)c(F)c1F)C(=O)Nc1n[nH]c(=S)s1 [Example 27, (S)-N-[1-[[(4,5-dihydro-5-thioxo-1,3,4-thiadiazol-2-yl)amino]carbonyl]-2,2-dimethylpropyl]-2,3,4,5,6-pentafluorobenzenepropanamide]"
